This test deals with Hepatitis C Virus RNA in cultured hepatoma (HuH-7) cells containing a subgenomic HCV Replicon. Put plainly: Assay for inhibition of HCV RNA replication (replicon assay, in situ ribonuclease protection SPA). It is filed as cell-based.
[1] abbreviates: Hepatitis C virus, Huh-7, read-out: Replicon Assay EC50.
Where [2] appears, read: mixture of diastereomers tested, HuH-7 subgenomic HCV replicon, read-out: Replicon Assay EC50.
Where [3] appears, read: Hepatitis C virus, Huh-7, read-out: Replicon Assay EC50, first eluting diastereomer, HuH-7 subgenomic HCV replicon.
The mark [4] stands for this setting: Hepatitis C virus, Huh-7, read-out: Replicon Assay EC50, second eluting diastereomer, HuH-7 subgenomic HCV replicon.

Where two headings read alike, the source gives them in different places.

Usually EC50 stands for the midpoint of the concentration-response curve. On to `C[C@@H](COC(=O)C(C)(C)C)NP(=O)(OC[C@H]1O[C@@H](n2ccc(N)nc2=O)[C@](C)(O)[C@@H]1O)Oc1ccccc1` (single isomer, unassigned) [Example 1], for which the EC50 was 1600 nM under setting [1] and 900 nM (read-out: Replicon Assay EC50).
`CC(C)C(=O)O[C@@H](C)CNP(=O)(OC[C@H]1O[C@@H](n2ccc(N)nc2=O)[C@](C)(O)[C@@H]1O)Oc1ccccc1` (single isomer, unassigned) [Example 12]: the concentration giving a half-maximal response (EC50) under setting [1] was 2200 nM and the concentration for a half-maximal effect (EC50) (read-out: Replicon Assay EC50) is 2400 nM.
With `CCCCC(COC(=O)C(C)(C)C)NP(=O)(OCC1OC(n2ccc(N)nc2=O)C2(C)OC(C)(C)OC12)Oc1ccccc1` [Example 15, cytidine, 5′-O-[[[(1S)-1-[(2,2-dimethyl-1-oxopropoxy)methyl]pentyl]amino]phenoxyphosphinyl]-2′-C-methyl-2′,3′-O-(1-methylethylidene)-], under setting [2], the 50% effective concentration (EC50) was above 10000 nM.
`CCC(CC)C(=O)OCCNP(=O)(OC[C@H]1O[C@@H](n2ccc(N)nc2=O)[C@](C)(O)[C@@H]1O)Oc1ccccc1` (single isomer, unassigned) [Example 20, 5′-O-[({2-[(2-ethylbutanoyl)oxy]ethyl}amino)(phenoxy)phosphoryl]-2′-C-methylcytidine]: the 50% effective concentration (EC50) by setting is: under setting [3], 2800 nM; under setting [4], 600 nM.
With `CC1(C)O[C@@H]2[C@@H](COP(=O)(N[C@H](COC(=O)C(C)(C)C)Cc3ccccc3)Oc3ccccc3)O[C@@H](n3ccc(N)nc3=O)[C@]2(C)O1` (stereo partly drawn) [Example 14, cytidine, 5′-O-[[[(1S)-2-(2,2-dimethyl-1-oxopropoxy)-1-(phenylmethyl)ethyl]amino]phenoxyphosphinyl]-2′-C-methyl-2′,3′-O-(1-methylethylidene)-], the concentration for a half-maximal effect (EC50) by setting is: (first eluting diastereomer, HuH-7 subgenomic HCV replicon, read-out: Replicon Assay EC50) above 5000 nM; (second eluting diastereomer, HuH-7 subgenomic HCV replicon, read-out: Replicon Assay EC50) above 5000 nM.
Consider `CC[C@H](C)[C@@H](COC(=O)C(C)(C)C)NP(=O)(OC[C@H]1O[C@@H](n2ccc(N)nc2=O)[C@](C)(O)[C@@H]1O)Oc1ccccc1` (single isomer, unassigned) [Example 6], for which the EC50 by setting is: under setting [1], 2000 nM; (read-out: Replicon Assay EC50) 1800 nM.
Regarding `C[C@@]1(O)[C@H](O)[C@@H](COP(=O)(NCCOC(=O)C2CCCCCC2)Oc2ccccc2)O[C@H]1n1ccc(N)nc1=O` (single isomer, unassigned) [Example 21, 5′-O-[({2-[(cycloheptylcarbonyl)oxy]ethyl}amino)(phenoxy)phosphoryl]-2′-C-methylcytidine], the EC50 by setting is: under setting [3], 700 nM; under setting [4], 1200 nM.
Regarding `CC(C)C(=O)OC[C@H](Cc1ccccc1)NP(=O)(OC[C@H]1O[C@@H](n2ccc(N)nc2=O)[C@](C)(O)[C@@H]1O)Oc1ccccc1` (single isomer, unassigned) [Example 11], the half-maximal effective concentration (EC50) runs as follows: under setting [1], 500 nM; (read-out: Replicon Assay EC50) 900 nM.
Regarding `CC(C)(C)C(=O)OC[C@H](Cc1ccccc1)NP(=O)(OC[C@H]1O[C@@H](n2ccc(N)nc2=O)[C@](C)(O)[C@@H]1O)Oc1ccccc1` (stereo partly drawn) [Example 8, 5′-O-[[[(1S)-2-[(2,-dimethyl-1-oxopropoxy)-1-(phenylmethyl)]-ethyl]amino]-(phenoxy)-phosphinyl]-2′-C-methylcytidine], under setting [2], the EC50 is 1000 nM.
On to `C[C@@]1(O)[C@H](O)[C@@H](COP(=O)(NCCOC(=O)c2ccccc2)Oc2ccccc2)O[C@H]1n1ccc(N)nc1=O` (single isomer, unassigned) [Example 16, cytidine, 5′-O-[[[2-(benzoyloxy)ethyl]amino]phenoxyphosphinyl]-2′-C-methyl-], for which the EC50 is 2200 nM under setting [3] and 5000 nM under setting [4].
The matching figures for `CC(C)C(=O)O[C@@H]1CCN(P(=O)(OC[C@H]2O[C@@H](n3ccc(N)nc3=O)[C@](C)(O)[C@@H]2O)Oc2ccccc2)C1` (single isomer, unassigned) [Example 22]: above 5000 nM and above 5000 nM.
`CCCC(=O)OC[C@H](C)NP(=O)(OC[C@H]1O[C@@H](n2ccc(N)nc2=O)[C@](C)(O)[C@@H]1O)Oc1ccccc1` (mixture of isomers) [Example 2, 5′-O-[{[(±)-2-(Butyryloxy)-1-methylethyl]-amino}-(phenoxy)-phosphoryl]-2′-C-methylcytidine]: the EC50 stood at 2800 nM under setting [1] and 4000 nM (read-out: Replicon Assay EC50).
